This is an account of results in patent US9284333B2, “Fused pyrroledicarboxamides and their use as pharmaceuticals” (SANOFI, priority 2012, dated 2016).

The target in the test is Human TASK-1 channels (Homo sapiens (Human), UniProt O14649). Kind of test: Determination of the activity on the TASK-1 channel in Xenopus oocytes (two-microelectrode voltage clamp). The class given is cell-based. The settings on record: for IC50: human TASK-1 expressed in Xenopus oocytes, room temperature, read-out: IC50 value for TASK-1 inhibition; for inhibition at 5 µM: compound concentration 5 μM. In outline: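 Current during 500 ms pulses to 40 mV from a −90 mV hold was recorded in oocytes expressing human TASK-1 for two days after cRNA injection. Compounds were added cumulatively to the ND96 bath (pH 7.4, room temperature). IC50 came from dose-response fitting of inhibition relative to pre-compound current.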
Chain of Human TASK-1 channels (O14649 whole entry): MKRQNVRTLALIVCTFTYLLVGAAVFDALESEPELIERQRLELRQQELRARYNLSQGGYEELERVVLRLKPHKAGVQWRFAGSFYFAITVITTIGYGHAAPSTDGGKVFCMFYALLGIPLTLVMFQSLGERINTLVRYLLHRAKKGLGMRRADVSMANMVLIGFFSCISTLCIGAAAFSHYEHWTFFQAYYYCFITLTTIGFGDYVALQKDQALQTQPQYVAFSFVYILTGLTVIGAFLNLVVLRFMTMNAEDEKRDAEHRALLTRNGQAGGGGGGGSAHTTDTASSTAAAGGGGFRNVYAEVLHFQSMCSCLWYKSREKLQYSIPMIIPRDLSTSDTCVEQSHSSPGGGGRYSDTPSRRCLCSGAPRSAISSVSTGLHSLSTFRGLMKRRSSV

As usually defined, the IC50 is the concentration at which inhibition is half-maximal. `CC[C@@H](NC(=O)c1cc(C(=O)N2CCN(CCC(F)(F)F)C[C@@H]2C)n2c1COCC2)c1ccccc1` [16ft, 6-[(S)-2-Methyl-4-(3,3,3-trifluoro-propyl)-piperazine-1-carbonyl]-3,4-dihydro-1H-pyrrolo[2,1-c][1,4]oxazine-8-carboxylic acid ((R)-1-phenyl-propyl)-amide]: the IC50 came out at 3600 nM. In the case of `CC[C@@H](NC(=O)c1cc(C(=O)N2CC[C@H](Oc3ccc(F)cc3)C2)n2c1COCC2)c1ccccc1` [16fu, 6-[(S)-3-(4-Fluoro-phenoxy)-pyrrolidine-1-carbonyl]-3,4-dihydro-1H-pyrrolo[2,1-c][1,4]oxazine-8-carboxylic acid ((R)-1-phenyl-propyl)-amid], the IC50 amounted to 240 nM. For `CC[C@@H](NC(=O)c1cc(C(=O)N2CCCC2c2ccn(C)n2)n2c1COCC2)c1ccccc1` (stereo partly drawn) [16fv, 6-[2-(1-Methyl-1H-pyrazol-3-yl)-pyrrolidine-1-carbonyl]-3,4-dihydro-1H-pyrrolo[2,1-c][1,4]oxazine-8-carboxylic acid ((R)-1-phenyl-propyl)-amide], the IC50 worked out at 920 nM. With `CC[C@@H](NC(=O)c1cc(C(=O)N2CCCC2C(C)n2cccn2)n2c1COCC2)c1ccccc1` (stereo partly drawn) [16fw, 6-[2-(1-Pyrazol-1-yl-ethyl)-pyrrolidine-1-carbonyl]-3,4-dihydro-1H-pyrrolo[2,1-c][1,4]oxazine-8-carboxylic acid ((R)-1-phenyl-propyl)-amide], the IC50 was determined as 420 nM. As usually defined, the inhibition is how much of the control response was suppressed. Low values mean little suppression, high ones strong suppression. On to `C#CC1CCCN1C(=O)c1cc(C(=O)N[C@H](CC)c2ccccc2)c2n1CCOC2` (stereo partly drawn) [16fx, 6-(2-Ethynyl-pyrrolidine-1-carbonyl)-3,4-dihydro-1H-pyrrolo[2,1-c][1,4]oxazine-8-carboxylic acid ((R)-1-phenyl-propyl)-amide], for which the inhibition at 5 µM amounted to 90%.

Take `CC[C@@H](NC(=O)c1cc(C(=O)N2CC[C@@H](C#N)C2)n2c1COCC2)c1ccccc1` [16fy, 6-((R)-3-Cyano-pyrrolidine-1-carbonyl)-3,4-dihydro-1H-pyrrolo[2,1-c][1,4]oxazine-8-carboxylic acid ((R)-1-phenyl-propyl)-amide]: the inhibition at 5 µM was 59%. With `CC[C@@H](NC(=O)c1cc(C(=O)N2CCCC2c2ncccn2)n2c1COCC2)c1ccccc1` (stereo partly drawn) [16fz, 6-(2-Pyrimidin-2-yl-pyrrolidine-1-carbonyl)-3,4-dihydro-1H-pyrrolo[2,1-c][1,4]oxazine-8-carboxylic acid ((R)-1-phenyl-propyl)-amide], the IC50 was found to be 5100 nM. Compound `CC[C@@H](NC(=O)c1cc(C(=O)N2CCC[C@@H]2c2ccc(C(F)(F)F)nc2)n2c1COCC2)c1ccccc1` [16ga, 6-[(R)-2-(6-Trifluoromethyl-pyridin-3-yl)-pyrrolidine-1-carbonyl]-3,4-dihydro-1H-pyrrolo[2,1-c][1,4]oxazine-8-carboxylic acid ((R)-1-phenyl-propyl)-amide] yielded an inhibition at 5 µM of 67%. As for `CC[C@@H](NC(=O)c1cc(C(=O)N2CCCC2C2CC2)n2c1COCC2)c1ccccc1` (stereo partly drawn) [16gb, 6-(2-Cyclopropyl-pyrrolidine-1-carbonyl)-3,4-dihydro-1H-pyrrolo[2,1-c][1,4]oxazine-8-carboxylic acid ((R)-1-phenyl-propyl)-amide], the IC50 was determined as 450 nM. Turning to `CC[C@@H](NC(=O)c1cc(C(=O)NCC2CC2)n2c1COCC2)c1ccccc1` [16gc, 3,4-Dihydro-1H-pyrrolo[2,1-c][1,4]oxazine-6,8-dicarboxylic acid 6-cyclopropylmethyl-amide 8-[((R)-1-phenyl-propyl)-amide]], the IC50 came to 100 nM. With `CC[C@@H](NC(=O)c1cc(C(=O)N(C)CC2CCOCC2)n2c1COCC2)c1ccccc1` [16gd, 3,4-Dihydro-1H-pyrrolo[2,1-c][1,4]oxazine-6,8-dicarboxylic acid 6-[methyl-(tetrahydro-pyran-4-ylmethyl)-amide] 8-[((R)-1-phenyl-propyl)-amide]], the IC50 came out at 5400 nM. `CC[C@@H](NC(=O)c1cc(C(=O)NC(C)C)n2c1COCC2)c1ccccc1` [16ge, 3,4-Dihydro-1H-pyrrolo[2,1-c][1,4]oxazine-6,8-dicarboxylic acid 6-isopropylamide 8-[((R)-1-phenyl-propyl)-amide]]: the IC50 turned out to be 690 nM. `CC[C@@H](NC(=O)c1cc(C(=O)NCC(C)C)n2c1COCC2)c1ccccc1` [16gf, 3,4-Dihydro-1H-pyrrolo[2,1-c][1,4]oxazine-6,8-dicarboxylic acid 6-isobutylamide 8-[((R)-1-phenyl-propyl)-amide]]: the IC50 was determined as 340 nM. The same measure, in the same setting: as for `CC[C@@H](NC(=O)c1cc(C(=O)NC(C)COC)n2c1COCC2)c1ccccc1` (stereo partly drawn) [16gg, 3,4-Dihydro-1H-pyrrolo[2,1-c][1,4]oxazine-6,8-dicarboxylic acid 6-[(2-methoxy-1-methyl-ethyl)-amide] 8-[((R)-1-phenyl-propyl)-amide]], the figure is 230 nM; as for `CC[C@@H](NC(=O)c1cc(C(=O)NCCOC)n2c1COCC2)c1ccccc1` [16gh, 3,4-Dihydro-1H-pyrrolo[2,1-c][1,4]oxazine-6,8-dicarboxylic acid 6-[(2-methoxy-ethyl)-amide] 8-[((R)-1-phenyl-propyl)-amide]], 2200 nM; as for `CC[C@@H](NC(=O)c1cc(C(=O)NC2CC2)n2c1COCC2)c1ccccc1` [16gi, 3,4-Dihydro-1H-pyrrolo[2,1-c][1,4]oxazine-6,8-dicarboxylic acid 6-cyclopropylamide 8-[((R)-1-phenyl-propyl)-amide]], 1300 nM. With `CC[C@@H](NC(=O)c1cc(C(=O)N[C@H]2CCc3ccccc32)n2c1COCC2)c1ccccc1` [16gj, 3,4-Dihydro-1H-pyrrolo[2,1-c][1,4]oxazine-6,8-dicarboxylic acid 6-(S)-indan-1-ylamide 8-[((R)-1-phenyl-propyl)-amide]], the IC50 was 48 nM. For `CC[C@@H](NC(=O)c1cc(C(=O)NCCC2CC2)n2c1COCC2)c1ccccc1` [16gk, 3,4-Dihydro-1H-pyrrolo[2,1-c][1,4]oxazine-6,8-dicarboxylic acid 6-[(2-cyclopropyl-ethyl)-amide] 8-[((R)-1-phenyl-propyl)-amide]], the 50% inhibitory concentration (IC50) came out at 36 nM. With `CC[C@@H](NC(=O)c1cc(C(=O)N[C@H](C)c2ccc(F)cc2)n2c1COCC2)c1ccccc1` [16gl, 3,4-Dihydro-1H-pyrrolo[2,1-c][1,4]oxazine-6,8-dicarboxylic acid 6-{[(R)-1-(4-fluoro-phenyl)-ethyl]-amide} 8-[((R)-1-phenyl-propyl)-amide]], the IC50 was found to be 42 nM. On the same count and under the same terms, next, `CC[C@@H](NC(=O)c1cc(C(=O)NCCc2ccccn2)n2c1COCC2)c1ccccc1` [16gm, 3,4-Dihydro-1H-pyrrolo[2,1-c][1,4]oxazine-6,8-dicarboxylic acid 8-[((R)-1-phenyl-propyl)-amide] 6-[(2-pyridin-2-yl-ethyl)-amide]]: 490 nM; `CC[C@@H](NC(=O)c1cc(C(=O)N(CC)CC)n2c1COCC2)c1ccccc1` [16gn, 3,4-Dihydro-1H-pyrrolo[2,1-c][1,4]oxazine-6,8-dicarboxylic acid 6-diethylamide 8-[((R)-1-phenyl-propyl)-amide]]: 250 nM; `CC[C@@H](NC(=O)c1cc(C(=O)NCC(C)(C)C)n2c1COCC2)c1ccccc1` [16go, 3,4-Dihydro-1H-pyrrolo[2,1-c][1,4]oxazine-6,8-dicarboxylic acid 6-[(2,2-dimethyl-propyl)-amide] 8-[((R)-1-phenyl-propyl)-amide]]: 900 nM. Take `CC[C@@H](NC(=O)c1cc(C(=O)N[C@@H]2CCc3ccccc32)n2c1COCC2)c1ccccc1` [16gp, 3,4-Dihydro-1H-pyrrolo[2,1-c][1,4]oxazine-6,8-dicarboxylic acid 6-(R)-indan-1-ylamide 8-[((R)-1-phenyl-propyl)-amide]]: the IC50 is 570 nM. As to `CC[C@@H](NC(=O)c1cc(C(=O)N2CCC[C@@H]2C)n2c1COCC2)c1ccc(F)c(C#N)c1` [16gq, 6-((S)-2-Methyl-pyrrolidine-1-carbonyl)-3,4-dihydro-1H-pyrrolo[2,1-c][1,4]oxazine-8-carboxylic acid [(R)-1-(3-cyano-4-fluoro-phenyl)-propyl]-amide], the IC50 stood at 490 nM. For the compound `CC[C@@H](NC(=O)c1cc(C(=O)N[C@H](CC)c2ccccn2)n2c1COCC2)c1ccccc1` [16gr, 3,4-Dihydro-1H-pyrrolo[2,1-c][1,4]oxazine-6,8-dicarboxylic acid 8-[((R)-1-phenyl-propyl)-amide] 6-[((R)-1-pyridin-2-yl-propyl)-amide]], the IC50 was found to be 310 nM. On the same count and under the same terms, next, `CC[C@@H](NC(=O)c1cc(C(=O)NCc2cccc(C#N)c2)n2c1COCC2)c1ccccc1` [16gs, 3,4-Dihydro-1H-pyrrolo[2,1-c][1,4]oxazine-6,8-dicarboxylic acid 6-(3-cyano-benzylamide) 8-[((R)-1-phenyl-propyl)-amide]]: 250 nM; `CC[C@@H](NC(=O)c1cc(C(=O)NCc2cnccn2)n2c1COCC2)c1ccccc1` [16gt, 3,4-Dihydro-1H-pyrrolo[2,1-c][1,4]oxazine-6,8-dicarboxylic acid 8-[((R)-1-phenyl-propyl)-amide] 6-[(pyrazin-2-ylmethyl)-amide]]: 310 nM; `CC[C@@H](NC(=O)c1cc(C(=O)NCc2cncc(F)c2)n2c1COCC2)c1ccccc1` [16gu, 3,4-Dihydro-1H-pyrrolo[2,1-c][1,4]oxazine-6,8-dicarboxylic acid 6-[(5-fluoro-pyridin-3-ylmethyl)-amide] 8-[((R)-1-phenyl-propyl)-amide]]: 640 nM. Take `CC[C@@H](NC(=O)c1cc(C(=O)NCc2cccc(S(C)(=O)=O)c2)n2c1COCC2)c1ccccc1` [16gv, 3,4-Dihydro-1H-pyrrolo[2,1-c][1,4]oxazine-6,8-dicarboxylic acid 6-(3-methanesulfonyl-benzylamide) 8-[((R)-1-phenyl-propyl)-amide]]: the IC50 is 1310 nM.

Consider `CC[C@@H](NC(=O)c1cc(C(=O)N(C)Cc2ccccn2)n2c1COCC2)c1ccccc1` [16gw, 3,4-Dihydro-1H-pyrrolo[2,1-c][1,4]oxazine-6,8--dicarboxylic acid 6-(methyl-pyridin-2-ylmethyl-amide) 8-[((R)-1-phenyl-propyl)-amide]], for which the IC50 came out at 780 nM.
